“Also recorded” adds a separate entry of the source. Blank lines part the entries; values can stand above or below the compound they belong to.
Key:
[1] = Permeation through human abdominal skin in a flow-through cell; assay type: in vitro ADME; settings: for skin penetration compared with CMA (times lower) / skin permeability / skin penetration compared with CMA (in words): relative to CMA; for average dose released by human abdominal skin after 24 hours: mean of 3 independent experiments, 5% suspension in aqueous 0.05% polysorbate 80 solution, dissected skin approx. 300 μm, approx. 19.7 mm^2, 34° C., receptor fluid pH 7.35
Description: Determination of Permeation of Chlormadinone Acetate (CMA) and 3β-Hydroxychlormadinone Acetate Through Human Abdominal Skin
Fragments of human abdominal skin arising during stomach reduction operations were placed in a Petri dish with dissection solution (Na^+: 144 mmol/l, K^+: 5.9 mmol/l, Ca^2+: 3.7 mmol/l, Cl,^−: 157 mmol/l). The skin fragments were reduced in thickness from the corium side, in several steps, down to a layer thickness of approx. 300 μm, while being kept moist with the dissection solution. Mechanically stable dissected skin was thus obtained, consisting of epidermis with approx. 150-200 μm of cutis. The layer thickness of the dissected skin fragments was determined by measuring with an external screw-type micrometer made by MITUTOYO. The area of the dissected skin fragments used amounted to approx. 19.7 mm^2.
Permeation of CMA respectively 3β-hydroxychlormadinone acetate through human abdominal skin was determined in a flow-through cell, which is illustrated schematically in FIG. 1. A receptor fluid (1) was here pumped past the underside of the dissected skin (2) with a peristaltic pump at a rate of 270 μl per hour. The dissected skin was clamped between the upper part (3) and the lower part (4) of the permeability cell (5). From above, vehicle with 3β-hydroxychlormadinone acetate (5% suspension in aqueous 0.05% polysorbate 80 solution) or chlormadinone acetate (5% suspension in aqueous 0.05% polysorbate 80 solution) was applied in each case to the skin, which then diffused through the dissected skin (2) into the receptor fluid (1). The dissected skin was moistened by a stationary donor fluid (9), which is situated in a reservoir (7). The internal diameter of the receptor fluid feed line (6) was 0.6 mm, and the receptor fluid volume below the skin amounted to approx. 80 μl. The receptor fluid (1) was analysed at fixed intervals by means of a fraction collector (8) and then by HPLC. These experiments allowed a quantitative statement to be made about the amount of substance diffused as a function of time.
An aqueous, isotonic tris buffer (20 mmol/l) with 20% ethanol was used as the receptor fluid and adjusted with NaCl to 310 mosmol (0.9 wt. %). The pH value of the receptor fluid was 7.35. A hole punch was used to punch a piece corresponding to the area of the dissected skin out of a plaster containing the active ingredient to be investigated, said piece being stuck to the dissected skin. […] The experiments were carried out at a test temperature of 34° C. In each case 3 independent series of measurements were made with CMA respectively 3β-hydroxychlormadinone acetate.

[2] = Antiandrogenic efficacy compared with CMA; settings: no method described

Compound: CC(=O)O[C@]1(C(C)=O)CC[C@H]2[C@@H]3C=C(Cl)C4=C[C@H](O)CC[C@]4(C)[C@H]3CC[C@@]21C [3α-hydroxychlormadinone acetate, 17α-acetoxychloropregna-4,6-dien-3α-ol-20-one]
skin penetration compared with CMA (times lower) [1]: 6 times
skin permeability / skin penetration compared with CMA (in words) [1]: far lesser degree of skin penetration compared with CMA
antiandrogenic efficacy relative to CMA (ratio) [2]: 0.7 times

Compound: CC(=O)O[C@]1(C(C)=O)CC[C@H]2[C@@H]3C=C(Cl)C4=C[C@@H](O)CC[C@]4(C)[C@H]3CC[C@@]21C [3β-hydroxychlormadinone acetate, 17α-acetoxychloropregna-4,6-dien-3β-ol-20-one]
average dose released by human abdominal skin after 24 hours [1]: 0.7 µg
skin penetration compared with CMA (times lower) [1]: 6 times
skin permeability / skin penetration compared with CMA (in words) [1]: far lesser degree of skin penetration compared with CMA; also recorded: far less than that of CMA
antiandrogenic efficacy relative to CMA (ratio) [2]: 0.7 times

average dose released by human abdominal skin after 24 hours [1]: 4.4 µg
Compound: CC(=O)O[C@]1(C(C)=O)CC[C@H]2[C@@H]3C=C(Cl)C4=CC(=O)CC[C@]4(C)[C@H]3CC[C@@]21C [CMA, chlormadinone acetate]
